The results in this text go back to patent publication US7547729B2, “1,3-diphenylprop-2-en-1-one derivative compounds, preparation method thereof and uses of same” (Genfit, priority 2004, dated 2009).

Molecules are shown by their SMILES.

In assay [1] the test system is LDL. As to the kind of experiment: Protection against LDL oxidation by copper (conjugated diene formation). The assay is classed as biochemical. Particulars: 10^−4M. Here is the method: Unless otherwise indicated, the reagents were from Sigma (St Quentin, France). LDL were prepared according to the method described by Lebeau et al. (Lebeau, Furman et al. 2000).
The solutions of test compounds were prepared at 10^−2 M concentration in bicarbonate buffer (pH 9) and diluted in PBS to obtain final concentrations ranging from 0.1 to 100 μM
Prior to oxidation, EDTA was removed from the LDL preparation by dialysis. Oxidation then took place at 30° C. by adding 100 μl of 16.6 μM CuSO4 solution to 160 μL of LDL (125 μg protein/ml) and 20 μl of a test compound solution. The formation of dienes, the species under observation, was followed by measuring optical density at 232 nm in the samples treated with the compounds in the presence or absence of copper. Optical density at 232 nm was measured every 10 minutes for 8 hours in a thermostated spectrophotometer (Tecan Ultra 380). The analyses were performed in triplicate. The compounds were considered to have antioxidant activity when they induced a longer lag phase and reduced the rate of oxidation and the amount of dienes formed in comparison with the control sample.

Assay [2] has as its target T1, PPARα (Homo sapiens, UniProt Q07869).
T1 construct: expressed in transfected cells; host or cells: COS-7 cells
T1 sequence (Q07869 239-466 limits assumed): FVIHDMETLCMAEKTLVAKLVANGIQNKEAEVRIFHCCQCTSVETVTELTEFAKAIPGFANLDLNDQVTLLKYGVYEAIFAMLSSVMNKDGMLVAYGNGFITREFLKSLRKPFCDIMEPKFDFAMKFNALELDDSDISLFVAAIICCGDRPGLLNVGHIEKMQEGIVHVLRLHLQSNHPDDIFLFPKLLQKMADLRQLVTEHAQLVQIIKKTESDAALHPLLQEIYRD
As to the kind of experiment: PPARα/Gal4 transactivation system in RK13 cells. Format: cell-based. The following applies: 24 hours. The method, then:
(§1) RK13 cells were incubated with the compound 2 at concentrations comprised between 0.01 and 10 μM for 24 hours. The results are expressed as the induction factor (ratio of luminescent signal obtained with the compound and that observed without the compound) after the different treatments.
PPAR activation was tested in vitro in RK13 epitheloid or COS-7 cell lines by measuring the transcriptional activity of chimeras composed of the DNA binding domain of the yeast gal4 transcription factor and the ligand binding domain of the different PPARs. These latter results were then confirmed in cell lines according to the following protocols: […]
RK13 cells were seeded in 24-well culture dishes at 5×10^4 cells/well, COS-7 cells in 96-well culture dishes at 5×10^4 cells/well and transfected for 2 hours with the reporter plasmid pG5TkpGL3 (50 ng/well), the expression vectors pGal4-φ, pGal4-mPPARα, pGal4-hPPARα, pGal4-hPPARγ, pGal4-hPPARδ (100 ng/well) and the transfection efficiency control vector pRL-CMV (1 ng/well) according to the previously described protocol (Raspe, Madsen et al. 1999), then incubated for 36 hours with the test compounds. […] The protein content of the cell extracts was then measured with the Bio-Rad Protein Assay (Bio-Rad, Munich, Germany) as directed by the supplier.

The subject of assay [3] is Apo E2/E2 transgenic mice. Briefly: Effects on triglyceride and cholesterol metabolism in Apo E2/E2 transgenic mice. The assay is classed as in vivo. Particulars: gavage, 50 mg/kg/day, seven days. The method, then:
FIGS. 19a, 19b, 19c, 19d, 20a, 20b, 20c and 20d illustrate the effects of treatment with compound 2 (Cpd2), compound 13 (Cpd13), compound 33 (Cpd33) and compound 39 (Cpd39) on triglyceride and cholesterol metabolism in Apo E2/E2 transgenic mice treated by gavage with the compound at a dose of 50 mg/kg/day, for seven days.
Apo E2/E2 transgenic mice were housed in a 12-hour light/dark cycle at a constant temperature of 20±3° C. After a 1-week acclimatization period, the mice were weighed and divided into groups of 6 animals selected such that the distribution of body weight was uniform. The test compounds were suspended in carboxymethylcellulose and administered by gastric lavage at the indicated doses, once a day for 7 days. Animals had access to food and water ad libitum. At the end of the experiments, animals were weighed and sacrificed under anesthesia. Blood was collected on EDTA. Plasma was isolated by centrifugation at 3000 rpm for 20 minutes. Liver samples were removed and stored frozen in liquid nitrogen for later analysis.
Lipid concentrations in plasma (total cholesterol and free cholesterol, triglycerides and phospholipids) were determined by a colorimetric assay (Boehringer, Mannheim, Germany) according to the supplier's instructions. Plasma concentrations of apolipoproteins AI, AII and CIII were determined as previously described (Raspe et al. 1999, Asset G et al., Lipids, 1999).

Assay [4] addresses T2, PPARγ (Homo sapiens, UniProt P37231).
T2 construct: expressed in transfected cells; host or cells: COS-7 cells
T2 sequence (P37231 238-503 limits assumed): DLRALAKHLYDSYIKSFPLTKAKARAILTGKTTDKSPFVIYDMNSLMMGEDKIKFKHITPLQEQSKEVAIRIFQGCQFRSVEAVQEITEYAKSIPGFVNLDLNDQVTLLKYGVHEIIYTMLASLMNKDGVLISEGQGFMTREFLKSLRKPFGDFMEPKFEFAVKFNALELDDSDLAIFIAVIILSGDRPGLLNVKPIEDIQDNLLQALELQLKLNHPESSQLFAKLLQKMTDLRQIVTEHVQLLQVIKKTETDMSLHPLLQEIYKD
Briefly: PPARγ/Gal4 transactivation system in RK13 cells. The assay is classed as cell-based. The following applies: 24 hours. The method, then: as §1
(§2) PPAR activation was tested in vitro in RK13 epitheloid or COS-7 cell lines by measuring the transcriptional activity of chimeras composed of the DNA binding domain of the yeast gal4 transcription factor and the ligand binding domain of the different PPARs. These latter results were then confirmed in cell lines according to the following protocols:
(§3) RK13 cells were from ECACC (Porton Down, UK), COS-7 cells were from the ATCC (American Type Culture Collection) and were grown in DMEM medium supplemented with 10% (VN) fetal calf serum, 100 U/ml penicillin (Gibco, Paisley, UK) and 2 mM L-glutamine (Gibco, Paisley, UK). The culture medium was changed every two days. Cells were kept at 37° C. in a humidified 95% air/5% CO2 atmosphere.
(§4) The plasmids pG5TkpGL3, pRL-CMV, pGal4-hPPARα, pGal4-hPPARγ, pGal4-hPPARδ and pGal4-φ have been described by Raspe, Madsen et al. (1999). The pGal4-mPPARα, pGal4-hPPARγ and pGal4-hPPARδ constructs were obtained by cloning into the pGal4-φ vector of PCR-amplified DNA fragments corresponding to the DEF domains of the human PPARα, PPARγ and PPARδ nuclear receptors.
(§5) RK13 cells were seeded in 24-well culture dishes at 5×10^4 cells/well, COS-7 cells in 96-well culture dishes at 5×10^4 cells/well and transfected for 2 hours with the reporter plasmid pG5TkpGL3 (50 ng/well), the expression vectors pGal4-φ, pGal4-mPPARα, pGal4-hPPARα, pGal4-hPPARγ, pGal4-hPPARδ (100 ng/well) and the transfection efficiency control vector pRL-CMV (1 ng/well) according to the previously described protocol (Raspe, Madsen et al. 1999), then incubated for 36 hours with the test compounds. At the end of the experiment, the cells were lysed (Gibco, Paisley, UK) and luciferase activity was determined with a Dual-Luciferase™ Reporter Assay System kit (Promega, Madison, Wis., USA) for RK13 cells and Steady Glow Luciferase (Promega) for COS-7 cells according to the supplier's instructions as previously described. The protein content of the cell extracts was then measured with the Bio-Rad Protein Assay (Bio-Rad, Munich, Germany) as directed by the supplier.

Assay [5] addresses T1, PPARα. As to the kind of experiment: PPARα/Gal4 transactivation system in COS-7 cells. The assay is classed as cell-based. The following applies: 24 hours. The method, then:
(§6) COS-7 cells were incubated with different concentrations of the inventive compounds for 24 hours. The results are expressed as the induction factor (ratio of luminescent signal obtained with the compound and that observed without the compound) after the different treatments.
as §2, §3, §4, §5

For assay [6], the target named is T2, PPARγ. Briefly: PPARγ/Gal4 transactivation system in COS-7 cells. The assay is classed as cell-based. Particulars: 24 hours. Here is the method:
as §6, §2, §3, §4, §5

The test system of assay [7] is monocyte-derived dendritic cells. Briefly: Differentiation of monocytes to dendritic cells (flow cytometry of surface markers). Format: cell-based. The method, then:
Compound 39 (10^−6 M) was added at D0 of differentiation of monocytes to dendritic cells. After six days of differentiation (in the presence of cytokines GM-CSF and IL-4), the dendritic cells were analyzed by flow cytometry.
For these experiments, blood samples from volunteer donors (Etablissement Francais du Sang) and monocytes were isolated by a standard protocol using anti-CD14-conjugated magnetic beads (Miltenyi Biotec). Monocytes isolated in this manner were then induced to differentiate by incubation for 6 days in culture medium containing a mixture of cytokines GM-CSF and IL-4 (20 ng/ml for each cytokine).
Compound 39 was added at t=0 and acquisition of the dendritic cell phenotype was followed by expression of the cell surface marker CD1a.
Background: In flow cytometry, cells or beads pass a laser one at a time.

Where [8] appears, read: compound added at t=0, six days differentiation, data not shown.

Turning to `CCCCCSCCOc1ccc(C(=O)/C=C/c2cc(C)c(OC(C)(C)C(=O)O)c(C)c2)cc1` [compound 2, 1-(4-(Pentylthioethyloxy)phenyl)-3-(4-carboxydimethylmethyloxy-3,5-dimethylphenyl)prop-2-en-1-one], the “lag phase of conjugated diene formation” value in assay [1] (FIG. 1a, copper alone 120 minutes) worked out at 314 min. Besides, in assay [1] (FIG. 1b, copper alone 1.8), the “rate of diene formation” value is 0.1 nmol/min/mg of LDL. Further, the “maximum amount of conjugated dienes formed” value in assay [1] (FIG. 1c, copper alone 372) came to 35 nmol/mg. In assay [1] (FIG. 1c, versus copper alone), the “decrease in the amount of conjugated dienes formed” value was found to be 90%. Further, the Induction factor is on record as 8.83 in assay [2] (1 μM); 18.49 in assay [2] (10 μM); 1.31 in assay [4] (0.01 μM); 1.18 in assay [4] (0.03 μM); 1.73 in assay [4] (0.1 μM); 4.58 in assay [4] (0.3 μM). Also, the Induction factor in assay [4] (1 μM) came out at 9.50; in assay [4] (3 μM) it was 16.64; in assay [4] (10 μM), 31.00. Besides, the plasma cholesterol entry in assay [3] is listed as “decrease”. In assay [3], the plasma triglycerides entry was “decrease”.

`CCCCCCSc1c(C)cc(C(=O)/C=C/c2cc(C)c(OC(C)(C)C(=O)O)c(C)c2)cc1C` [compound 39, 1-(4-Hexylthio-3,5-dimethylphenyl)-3-(4-carboxydimethylmethyloxy-3,5-dimethylphenyl)prop-2-en-1-one]: the lag phase in assay [1] (FIG. 8a, absence of compounds 67.3 minutes) was found to be 133 min. The “rate of LDL oxidation” value in assay [1] (FIG. 8b, absence of compounds 2.5) came to 1.2 nmol/min/mg. The “total amount of dienes formed” value in assay [1] (FIG. 8c, absence of compound 432.3) stood at 371.2 nmol/mg. Also, the plasma cholesterol entry in assay [3] was “decrease”. Also, in assay [3], the plasma triglycerides result is recorded as “decrease”. The Induction factor in assay [5] (0.001 μM) is 1.08; in assay [5] (0.003 μM) it was 1.17; in assay [5] (0.01 μM), 3.19; in assay [5] (0.03 μM), 7.69; in assay [5] (0.1 μM), 9.68; in assay [5] (0.3 μM), 10.16. Besides, the Induction factor in assay [5] (1 μM) is recorded as 10.42; in assay [5] (3 μM), 9.96; in assay [6] (0.001 μM) it was 0.95; in assay [6] (0.003 μM), 0.96; in assay [6] (0.01 μM), 1.56; in assay [6] (0.03 μM) it was 3.06. Further, the Induction factor in assay [6] (0.1 μM) stood at 4.08; in assay [6] (0.3 μM) it was 4.86; in assay [6] (1 μM), 4.78; in assay [6] (3 μM), 4.72. Further, in assay [7] (10^−6 M added at D0, six days with GM-CSF and IL-4), the “expression of CD1a at the cell surface” value is reported as “almost totally inhibiting”. For the same compound, the CD86 expression entry in assay [7] (setting [8]) was “slightly increased”. Also, the “expression of the costimulation molecule CD80” value in assay [7] (setting [8]) is “reduced, to a lesser extent”.
